Laboratory results from patent US5759577A, “Controlled release of steroids from sugar coatings” (American Home Products Corporation, priority 1996, dated 1998).

What was measured:
[1] = in vitro dissolution of medrogestone, USP XX <711> Apparatus 2, 50 r.p.m.; type: physicochemical; conditions: sugar coat containing 0.4% microcrystalline cellulose versus conventional tablet
Protocol: A sugar coating containing 5 mg of medrogestone in a matrix of sucrose with 0.4% microcrystalline cellulose and 0.5% polyvinyl pyrrolidone was applied to a sealed and sugar-coated tablet core.

[2] = in vitro dissolution of steroid, Method A (USP XX <711> Apparatus 2, 50 rpm); type: physicochemical; conditions: Examples 1-3, Methods A, B and C, no microcrystalline cellulose
Excerpt: CV represents the coefficient of variation between these trials expressed as a percentage.

Structure (SMILES) | dissolution of medrogestone (in words) [1] | release from the sugar coating (in words) [2]
CC(=O)[C@@]1(C)CC[C@H]2[C@@H]3C=C(C)C4=CC(=O)CC[C@]4(C)[C@H]3CC[C@@]21C [medrogestone] | dramatic effect of reduced dissolution | 
CC(=O)O[C@]1(C(C)=O)CC[C@H]2[C@@H]3C[C@H](C)C4=CC(=O)CC[C@]4(C)[C@H]3CC[C@@]21C [medroxyprogesterone acetate] |  | released from the sugar coating extremely rapidly
